Experimental data: patent publication US20240336923A1, “DNAZYMES TARGETING CELL WALL SYNTHESIS ENZYMES AND USES THEREOF” (priority 2021, published 2024)
{CholTEG} = cholesterol-triethylene glycol

Legend:
Type in all cases: cell-based
[1] = system: Pseudomonas aeruginosa (MDR-PA, ATCC® BAA-3105™) pre-established biofilm; experiment: DNAzyme treatment of pre-established biofilms without or with meropenem (CFU, SEM); conditions: DNAzyme 2.5 μM, 8 hours; for effect on meropenem activity against pre-established biofilms: PBS + 10 μM meropenem, FIG. 6B; for reduction of biofilm biomasses: mature 24 h biofilms, without or with meropenem, FIGS. 6A-6B
Procedure: FIGS. 6A-6C: DNAzymes can reduce viability and increase antibiotic sensitivity of cells from pre-established biofilms. Biofilms were grown in TSB in 12 well plates. 24 hours later, the medium was replaced with PBS (FIG. 6A) or with PBS+10 μM meropenem (FIG. 6B) in the presence or absence of the indicated DNAzymes, murG-162 or SCR (scramble control), […]. Following 8 hours, the adherent remaining cells were extracted, and the number of CFU was determined. (FIG. 6C) Biofilms were grown as described for FIG. 6B. The mesh with associated biofilms was imaged with SEM.
The effect of DNAzymes targeting murG on pre-established biofilms was studied by comparing the application of PBS, scrambled DNAzyme control (SCR), or indicated DNAzymes (162-murG, 207-murG, and 366-murG) on mature biofilms without or with the beta-lactam meropenem (FIGS. 6A-6B, respectively).
These findings were confirmed by SEM. Biofilms treated with sub-lethal concentrations of meropenem with control SCR DNAzyme were […] and had more texture. […] FIG. 6C presents an example of these findings, wherein SCR DNAzyme treated samples were compared to biofilms treated with murG162+meropenem.

[2] = system: Pseudomonas aeruginosa (MDR-PA, ATCC® BAA-3105™) biofilm; experiment: Biofilm formation assays (crystal violet and CFU); conditions: TSB, 96 wells, DNAzyme 2.5 μM, 16 hours; for biofilm formation (crystal violet): FIG. 4A; for viable cells within the biofilm (CFU): FIG. 4B
Procedure: FIGS. 4A-B are graphs showing reduction in bacterial density (FIG. 4A) or colony-forming units (FIG. 4B) (vertical axis) in biofilms grown either with or without the indicated DNAzymes (2.5 μM) in 96 wells with tryptic soy broth (TSB) for 16 hours, after which non-adhered cells were removed, and biofilms were washed and stained with 0.1% crystal violet (FIG. 4A) or replating (FIG. 4B). Average and standard mean are depicted by horizontal bars and brackets. Scr is a control scramble DNAzyme (Scr nucleotide sequence is 5′-[…]/3CholTEG/; SEQ ID NO: 44). NT is No Treatment.
Biofilm assays. Bacterial strains were streaked from frozen LB+glycerol stocks onto LB agar plates and incubated for 24 h at 37° C. Single colonies were grown overnight at 37° C. in 3 ml of LB. Cultures were diluted 1:100 in TSB in a 96-well plate, and DNAzymes were added to a final concentration of 2.5 μM. Cultures were incubated at 37° C. without shaking for 16 hours. Non-adherent cells were removed, and biofilms were washed with PBS and either stained with crystal violet (0.1%), or biofilm cells were extracted using mild sonication (2-4 pulses of 5 seconds, amplitude 30%) for CFU determination. CFU was measured using serial dilutions of the bacterial suspensions and spots were plated on LB plates. CFU was determined as above.
To measure the ability of DNAzymes that target a transcript encoding a cell wall biosynthesis enzyme, to affect biofilm formation, bacteria were grown in TSB on plates, under conditions that favor biofilm formation. Representative DNAzymes tested included murG-162, murG-207, and murG-366.

[3] = system: Pseudomonas aeruginosa (MDR-PA, ATCC® BAA-3105™) biofilm; experiment: Scanning electron microscopy of biofilms grown with DNAzymes; conditions: stainless steel mesh, TSB, DNAzyme 1.25 μM twice, 48 hours; FIG. 5C
Procedure: FIGS. 5A-5C: Biofilm macrostructure and morphology of single bacterial cells are affected by DNAzymes targeting murG. Biofilms were grown on top of dense stainless steel mesh in TSB in 12 well plates with or without indicated DNAzymes (1.25 μM). 24 hours afterwards, an additional dose of DNAzymes was added to treated samples. Following 48 hours of overall inoculation, biofilms were fixated and dehydrated. The mesh with associated biofilms was imaged with scanning electron microscopy (SEM). The results are of a representative field of 3 independent repeats. (FIG. 5A). NT, scr, and murG162 as above) (FIG. 5B) Enlargements of representative zones, enabling detection of single-cell morphologies. (FIG. 5C) Overall measurements of the maximal thickness of dehydrated biofilms. (NT, scr, and murG162 as above)
To determine the effects of the representative DNAzymes on macro- and microstructure of treated biofilms, 3D structures of treated and untreated biofilms were examined using scanning electron microscopy (SEM).
To study the effects of DNAzyme treatment on biofilm structure, 3D topographies of the biofilms were generated to compare multiple areas of the biofilm. The biofilms were dehydrated, resulting in a uniform loss of volume percentage.

[4] = system: Pseudomonas aeruginosa strain ATCC® BAA-3105™; experiment: Intracellular DNAzyme quantification in bacteria grown in media (qPCR / flow cytometry); conditions: LB + 32 μg/ml meropenem, 1.25 μM DNAzyme, 4 hours
Procedure: FIGS. 2A-2D. Uptake of fluorescent DNAzyme in media mimicking in vivo conditions, in the presence of subtoxic concentrations of meropenem as judged by flow cytometry. […] FIG. 2B is a graph showing the copy number of fluorescent murG-207 DNAzymes (Dz) per bacterium, as measured by flow cytometry. FIG. 2C is a graph showing uptake of fluorescent murG-207 DNAzyme in bacterial cells in a biofilm. Bacteria were grown under conditions favoring biofilm formation in TSB for 24 hours. Biofilm cells were separated from non-adhered cells, incubated with fluorescent murG-207 DNAzyme for 2 hours, and analyzed by flow cytometry. FIG. 2D is a graph showing uptake of DNAzymes in bacterial colonizing lung tissue samples (mouse lungs from naïve healthy mice). MDR-PA were grown with lung samples in DMEM with meropenem for 24 hours. […] In the histograms shown in FIGS. 2A, 2C, and 2D, arrows indicate which lines represent the basal fluorescence levels of the bacteria, and fluorescence of murG-207 DNAzyme with 3′cholesterol-TEG modification.
Flow cytometry. […] Data was analyzed using Kaluza Analysis 2.1 software using a C6 import module.
Intracellular DNAzyme quantification from bacterial cells. […] For intracellular extraction of the DNAzymes, cells were incubated for 10 minutes at 95° C., and supernatants were collected for quantification of intracellular DNAzymes. […]

Substance | effect on meropenem activity against pre-established biofilms [1] | reduction of biofilm biomasses [1] [log] | biofilm formation (crystal violet) [2] | viable cells within the biofilm (CFU) [2] | occurrence of areas thicker than 10 μm in dehydrated biofilms [3] | average copy number of DNAzymes per cell [4]
5′-GGCGTTCTG ggctagctacaacga TCGTGGATC-Chol-TEG-3′ (DNA GGCGTTCTGGGCTAGCTACAACGATCGTGGATC; DNA, 3' {CholTEG}, backbone and methylation of C not given here) [murG-366, 10-23 DNAzyme targeting murG RNA transcript, cleavage site nt 366, 3′ cholesterol-TEG] | potentiated the effect of meropenem | ~1 | biofilm inhibition | significant reduction of viable cells | – | –
5′-ACCACAATACCGAGATCGGTCGTGTCGGCATGA/3CholTEG/ (DNA, 3' {CholTEG}, backbone and methylation of C not given here) [Scr, control scramble DNAzyme, reference compound] | – | – | did not show inhibition of biofilm formation | did not show inhibition of biofilm formation or a reduction of viable cells | composed of areas thicker than 10 μm, areas of about 10 μm, and significantly thinner areas | –
5′-GATCAGGTG ggctagctacaacga AACGGCAGG-Chol-TEG-3′ (DNA GATCAGGTGGGCTAGCTACAACGAAACGGCAGG; DNA, 3' {CholTEG}, backbone and methylation of C not given here) [murG-162] | potentiated the effect of meropenem | ~1 | biofilm inhibition | significant reduction of viable cells | significantly reduced | –
5′-CTTGACCAG ggctagctacaacga GACTTCAGG-Chol-TEG-3′ (DNA CTTGACCAGGGCTAGCTACAACGAGACTTCAGG; DNA, 3' {CholTEG}, backbone and methylation of C not given here) [murG-207, 10-23 DNAzyme targeting murG RNA transcript, cleavage site nt 207, 3′ cholesterol-TEG] | potentiated the effect of meropenem | ~1 | biofilm inhibition | significant reduction of viable cells | – | over 10,000 DNAzymes per cell
